Results from PMC12785453, “Oral Fluid Concentrations and Pharmacological Effects of Clephedrone and Methylone in Humans” (International Journal of Molecular Sciences, 2025).

How the values were obtained:
[1] = Oral fluid concentrations of clephedrone (GC-MS/MS); format: in vivo, humans; settings: both sexes, human, 100 or 150 mg oral
Experimental: (§1) This study consisted of one experimental session in which participants (N = 8; 6 women, 2 men) selected their oral dose of clephedrone based on their drug use experience and preferences. According to their dose selection, 3 women and 1 man ingested 100 mg of clephedrone, while the remaining 3 women and 1 man opted for a higher dose of 150 mg. […] Participants were recruited by word of mouth by the harm reduction organization Energy Control in Barcelona (Associació Benestar i Desenvolupament, ABD).
In both studies, oral fluid samples for the quantification of clephedrone and methylone concentration were collected using Salivette standard tubes. For clephedrone, oral fluid samples were collected at baseline, 0.50, 1, 1.5, 2, 3, 4, and 5 h, whereas for methylone, they were collected at baseline, 0.25, 0.50, 0.75, 1, 1.5, 2, 3, 4, 6, 8, and 10 h. After collection, all samples were centrifuged and stored frozen at −20 °C until analysis. Clephedrone oral fluid concentrations were determined using a previously validated gas chromatography coupled to mass spectrometry systems (GC-MS/MS). Methylone was quantified via liquid chromatography–tandem mass spectrometry (LC–MS/MS).
For oral fluid concentrations of clephedrone and methylone, only a descriptive analysis was performed to obtain the main pharmacokinetics data, including the maximum concentration (Cmax), the time required to reach maximum concentrations (Tmax), and AUC up to 5 h (AUC0–5h) for clephedrone and up to 6 h (AUC0–6h) for methylone. These parameters were calculated using the Pharmacokinetic Functions for Microsoft Excel (Joel Usansky, Atul Desai, and Diane Tang-Liu, Department of Pharmacokinetics and Drug Metabolism, Allergan, Irvine, CA, USA). Oral cortisol concentrations after clephedrone were analyzed using Dunnett’s multiple comparison test (each time point with baseline).

healthy volunteers = assay: Physiological effects (SBP, DBP, HR, T), naturalistic observational clephedrone study; format: in vivo, humans
Excerpt: The study evaluating the acute effects of clephedrone was designed as a non-controlled, prospective, observational, and naturalistic study. The procedures and evaluations included in this study have been described in previous studies evaluating other synthetic cathinones (mephedrone, methylone, alpha-PVP, NEP, HEXEN), phenethylamines (2C-B and 2C-E), or synthetic cannabinoids (JWH-122, JWH-210, UR-144).
as §1
Participants of the naturalistic clephedrone study were summoned at 15:00 h at the private club where sessions were carried out. The club remained closed to the public until the end of the session, approximately at 21:00 h. As a naturalistic study, participants were left free to talk, read, play games, or listen to music in the time between study evaluations. To avoid possible influences between participants, they were asked to refrain from talking about the effects of the self-administered substance. The experimental sessions of the controlled pilot trial were carried out at the Clinical Research Unit (UPIC) of the Germans Trias i Pujol hospital, where participants were summoned at 7:45 a.m. after fasting overnight and remained there for approximately 11 h.
In the naturalistic clephedrone study, non-invasive systolic blood pressure (SBP), diastolic blood pressure (DBP), and heart rate (HR) were assessed, while subjects remained seated with an automatic Omron monitor (Omron, Healthcare, Kyoto, Japan) at baseline, 0.50, 1, 1.5, 2, 3, 4 and 5 h (h) after self-administration. Forehead cutaneous temperature was determined at the same time points using a cutaneous infrared thermometer.
For statistical analysis, values of physiological (SBP, DBP, HR, and T) and subjective effects (VAS, ARCI, and VESSPA-SSE) were baseline–adjusted. Maximum effects (Emax) and the time needed to reach maximum effects (Tmax) were determined, and the area under the curve up to 5 h (AUC0–5h) for clephedrone and up to 6 h (AUC0–6h) for methylone was calculated using the trapezoidal rule. Emax and AUC values are presented as mean ± standard deviation, whereas Tmax is presented in median (range).
To find possible significant changes through the time course compared to baseline, a Dunnett multiple comparison test was carried out to compare each time point with baseline in both drug conditions. For clephedrone the comparisons were 0–0.5 h, 0–1 h, 0–1.5 h, 0–2 h, 0–3 h, 0–4 h and 0–5 h, and for methylone this analysis included 0–0.25 h, 0–0.5 h, 0–0.75 h, 0–1 h, 0–1.5 h, 0–2 h, 0–3 h, 0–4 h and 0–6 h. Given their different study designs, no comparative analysis between the time courses of both synthetic cathinones was conducted.

humans = settings: cited from earlier work
[2] = 100 or 150 mg oral, n=8, listed as clephedrone
[3] = AUC0–5h, 100 or 150 mg oral, n=8

Structure (SMILES) | Cmax ([1]; n=8) [ng/mL] | Tmax ([1]; n=8) [h] | AUC(0-t) ([1]; n=8, read-out: Oral fluid AUC0–5 h) [ng·h/mL] | Onset of cardiovascular effects after self-administration (healthy volunteers; 100 or 150 mg oral) [h] | Tmax of maximum effects on SBP, DBP and HR (healthy volunteers; 100 or 150 mg oral) [h] | DBP Emax (healthy volunteers; 100 or 150 mg oral, n=8) [mmHg] | HR Emax (healthy volunteers; 100 or 150 mg oral, n=8) [bpm] | SBP Emax (healthy volunteers; 100 or 150 mg oral, n=8) [mmHg] | DBP Emax (healthy volunteers; [2]) [mmHg] | HR Emax (healthy volunteers; [2]) [bpm] | HR Tmax (healthy volunteers; [2]) [h] | SBP Emax (healthy volunteers; [2]) [mmHg] | DBP AUC0-5/6 h (healthy volunteers; [3]) [mmHg·h] | HR AUC0-5/6 h (healthy volunteers; [3]) [bpm·h] | SBP AUC0-5/6 h (healthy volunteers; [3]) [mmHg·h] | T AUC0-5/6 h (healthy volunteers; AUC0–5h, forehead cutaneous temperature, 100 or 150 mg oral, n=8) [°C·h] | Tolerability, serious adverse events (healthy volunteers; all administered doses (100 or 150 mg oral)) | T Emax (healthy volunteers; forehead cutaneous temperature, 100 or 150 mg oral, n=8) [°C] | Persistence of heart rate increases (humans; naturalistic and controlled environments) [h] | Time of peak effects following self-administration (humans; naturalistic conditions) [h]
CNC(C)C(=O)c1ccc(Cl)cc1 (centres unmarked) [Clephedrone, 4-chloromethcathinone] | 6410 ± 3490 | 3 | 10700 | 2 | 2.5 to 3.0 | 13.63 ± 11.74 | 17.19 ± 25.17 | 16.81 ± 13.11 | 13.6 | 17.19 | 3 | 16.81 | 32.64 ± 22.06 | 37.20 ± 40.72 | 41.77 ± 13.86 | 1.25 ± 1.05 | well tolerated | 0.63 ± 0.35 |  | 
CNC(C)C(=O)c1ccc2c(c1)OCO2 (centres unmarked) [Methylone, 3,4-methylenedioxy-N-methylcathinone] |  |  |  |  |  |  |  |  |  |  |  |  |  |  |  |  |  |  | 8 to 10 | 2
